Data set [1] deals with MDA-MB-468. The data set is described as follows: Cytotoxicity against human MDA-MB-468 cells assessed as inhibition of cell growth incubated for 72 hrs by MTS assay. It is filed as functional, cell-based. The note with it: MDA-MB-468, 72 h. For orientation: Formazan colour is commonly taken as a measure of viable cells.
The nature of data set [2]: Cytotoxicity against HEK293 cells assessed as inhibition of cell growth incubated for 72 hrs by MTS assay. It is filed as toxicity, cell-based. The note with it: human.
Data set [3] is described as follows: Cytotoxicity against HEK293 cells assessed as inhibition of cell growth at 50 uM incubated for 72 hrs by MTS assay relative to control. It is filed as toxicity, cell-based. The note with it: human.
Data set [4] can be described thus: Selectivity index, ratio of IC50 for cytotoxicity against HEK293 cells to IC50 for cytotoxicity against human MDA-MB-468 cells. It is filed as toxicity, cell-based. The note with it: HEK293 cells versus MDA-MB-468 cells, read-out: Ratio IC50.
The target of data set [5] is Mast/stem cell growth factor receptor Kit (Homo sapiens) (UniProt P10721). The data set is described as follows: Inhibition of c-KIT (unknown origin) assessed as residual activity at 10 uM incubated for 1 hr by KinomeScan analysis relative to control.
Data set [6] concerns the target T1, Serine/threonine-protein kinase D2 (Homo sapiens) (UniProt Q9BZL6).
T1 sequence (whole entry): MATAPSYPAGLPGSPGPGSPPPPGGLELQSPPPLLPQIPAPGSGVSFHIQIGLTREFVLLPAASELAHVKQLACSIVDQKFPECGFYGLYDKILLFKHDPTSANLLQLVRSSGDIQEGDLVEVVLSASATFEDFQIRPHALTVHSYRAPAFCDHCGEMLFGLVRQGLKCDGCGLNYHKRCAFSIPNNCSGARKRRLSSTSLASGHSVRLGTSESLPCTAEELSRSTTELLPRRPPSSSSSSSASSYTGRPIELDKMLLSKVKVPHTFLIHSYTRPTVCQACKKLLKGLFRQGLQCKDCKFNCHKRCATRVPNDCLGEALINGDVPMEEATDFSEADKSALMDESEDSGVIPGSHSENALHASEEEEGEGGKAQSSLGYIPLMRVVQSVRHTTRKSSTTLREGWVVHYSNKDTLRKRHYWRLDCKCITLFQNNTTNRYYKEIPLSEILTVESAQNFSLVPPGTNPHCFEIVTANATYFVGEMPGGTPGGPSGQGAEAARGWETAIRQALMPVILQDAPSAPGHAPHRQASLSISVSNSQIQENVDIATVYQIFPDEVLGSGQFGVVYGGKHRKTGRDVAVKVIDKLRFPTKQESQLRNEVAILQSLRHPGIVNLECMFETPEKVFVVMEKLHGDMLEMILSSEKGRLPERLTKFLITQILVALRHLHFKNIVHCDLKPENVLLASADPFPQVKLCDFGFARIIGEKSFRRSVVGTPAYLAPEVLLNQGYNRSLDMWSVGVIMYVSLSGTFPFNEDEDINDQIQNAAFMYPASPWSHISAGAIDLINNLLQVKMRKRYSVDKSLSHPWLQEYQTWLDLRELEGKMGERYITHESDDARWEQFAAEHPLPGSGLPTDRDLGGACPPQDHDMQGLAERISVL
The data set is described as follows: Inhibition of PRKD2 (unknown origin) assessed as residual activity at 10 uM incubated for 1 hr by KinomeScan analysis relative to control.

Data set [7] addresses T2, Vascular endothelial growth factor receptor 2 (Homo sapiens, UniProt P35968). Kind of data set: Inhibition of VEGFR2 phosphorylation in VEGF-induced HUVEC cells assessed as reduction in pVEGFR2 level at 20 uM incubated for 5 mins by Western blot analysis. It is filed as cell-based. On the technique in general: In western blotting, separated proteins are transferred to a membrane and probed.

For data set [8], the target named is T3, Myosin light chain kinase family member 4 (Homo sapiens) (UniProt Q86YV6).
T3 sequence (whole entry): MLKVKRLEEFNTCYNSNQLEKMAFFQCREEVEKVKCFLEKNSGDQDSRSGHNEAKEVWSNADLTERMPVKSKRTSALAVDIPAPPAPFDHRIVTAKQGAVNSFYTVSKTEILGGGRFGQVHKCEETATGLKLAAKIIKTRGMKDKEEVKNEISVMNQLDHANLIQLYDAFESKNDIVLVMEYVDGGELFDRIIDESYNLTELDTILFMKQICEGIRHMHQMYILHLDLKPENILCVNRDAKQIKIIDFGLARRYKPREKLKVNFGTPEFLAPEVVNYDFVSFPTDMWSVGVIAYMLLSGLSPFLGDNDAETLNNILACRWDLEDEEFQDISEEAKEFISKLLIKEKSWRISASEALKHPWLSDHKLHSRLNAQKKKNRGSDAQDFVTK
The data set is described as follows: Inhibition of MYLK4 (unknown origin) assessed as residual activity at 10 uM incubated for 1 hr by KinomeScan analysis relative to control.

Data set [9] has as its target T2, Vascular endothelial growth factor receptor 2. Kind of data set: Inhibition of VEGFR2 (unknown origin) using poly[Glu:Tyr] (4:1) as substrate at 20 uM incubated for 45 mins by kinase-glo max reagent based luminescence analysis relative to control. (In general: In Kinase-Glo more light means more ATP remaining.)
Data set [10] deals with Activated CDC42 kinase 1 (Homo sapiens) (UniProt Q07912). Kind of data set: Inhibition of TNK2 (unknown origin) assessed as residual activity at 10 uM incubated for 1 hr by KinomeScan analysis relative to control.
For data set [11], the system named is HUVEC. Kind of data set: Antiangiogenic activity in HUVEC cells assessed as inhibition of VEGF-induced cell proliferation at 20 uM incubated for 48 hrs by MTT assay relative to control. It is filed as functional. The note with it: Homo sapiens, values are per cent of control.
Data set [12] has as its target T2, Vascular endothelial growth factor receptor 2. Kind of data set: Inhibition of VEGFR2 (unknown origin) using poly[Glu:Tyr] (4:1) as substrate incubated for 45 mins by kinase-glo max reagent based luminescence analysis.

The structures appear in SMILES notation. pIC50: −log10 of the molar value. Active and inactive are the calls of the source. No cut-off for these calls is given here.

T2 sequence (P35968 whole entry): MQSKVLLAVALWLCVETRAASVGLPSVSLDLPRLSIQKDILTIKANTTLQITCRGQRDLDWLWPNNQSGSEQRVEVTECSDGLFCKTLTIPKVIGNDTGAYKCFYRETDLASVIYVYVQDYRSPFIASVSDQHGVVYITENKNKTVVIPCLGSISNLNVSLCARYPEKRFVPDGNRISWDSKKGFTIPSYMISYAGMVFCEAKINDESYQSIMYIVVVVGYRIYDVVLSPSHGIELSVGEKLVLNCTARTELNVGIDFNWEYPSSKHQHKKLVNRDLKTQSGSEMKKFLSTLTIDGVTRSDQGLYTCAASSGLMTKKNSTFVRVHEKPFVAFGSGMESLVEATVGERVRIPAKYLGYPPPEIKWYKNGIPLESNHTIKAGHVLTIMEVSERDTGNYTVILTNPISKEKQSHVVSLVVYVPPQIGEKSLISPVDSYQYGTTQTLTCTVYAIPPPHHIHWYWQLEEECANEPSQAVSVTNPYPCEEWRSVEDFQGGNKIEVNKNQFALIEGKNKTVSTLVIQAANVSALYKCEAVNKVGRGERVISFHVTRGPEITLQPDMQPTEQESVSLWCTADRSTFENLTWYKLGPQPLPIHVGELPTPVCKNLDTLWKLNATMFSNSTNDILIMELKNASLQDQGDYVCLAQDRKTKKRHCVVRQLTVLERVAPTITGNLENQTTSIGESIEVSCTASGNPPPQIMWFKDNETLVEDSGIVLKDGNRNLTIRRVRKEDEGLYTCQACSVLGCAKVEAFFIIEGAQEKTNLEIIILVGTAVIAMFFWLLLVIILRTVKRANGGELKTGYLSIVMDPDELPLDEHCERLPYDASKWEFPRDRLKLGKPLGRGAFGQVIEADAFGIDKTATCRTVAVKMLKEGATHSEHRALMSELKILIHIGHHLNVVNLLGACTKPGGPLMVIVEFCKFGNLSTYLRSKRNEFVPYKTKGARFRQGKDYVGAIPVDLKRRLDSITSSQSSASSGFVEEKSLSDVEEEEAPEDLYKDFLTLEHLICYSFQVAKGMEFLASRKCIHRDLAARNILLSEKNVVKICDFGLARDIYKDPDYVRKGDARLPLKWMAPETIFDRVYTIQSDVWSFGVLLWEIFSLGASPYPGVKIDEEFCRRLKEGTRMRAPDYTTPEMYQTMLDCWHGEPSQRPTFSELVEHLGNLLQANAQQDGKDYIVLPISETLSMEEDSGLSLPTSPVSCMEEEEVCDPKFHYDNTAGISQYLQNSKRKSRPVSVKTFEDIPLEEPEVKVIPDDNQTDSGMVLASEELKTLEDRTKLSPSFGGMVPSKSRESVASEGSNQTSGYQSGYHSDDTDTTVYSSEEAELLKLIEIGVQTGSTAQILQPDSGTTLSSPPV
Chain of Activated CDC42 kinase 1 (Homo sapiens) (Q07912 whole entry, looked up): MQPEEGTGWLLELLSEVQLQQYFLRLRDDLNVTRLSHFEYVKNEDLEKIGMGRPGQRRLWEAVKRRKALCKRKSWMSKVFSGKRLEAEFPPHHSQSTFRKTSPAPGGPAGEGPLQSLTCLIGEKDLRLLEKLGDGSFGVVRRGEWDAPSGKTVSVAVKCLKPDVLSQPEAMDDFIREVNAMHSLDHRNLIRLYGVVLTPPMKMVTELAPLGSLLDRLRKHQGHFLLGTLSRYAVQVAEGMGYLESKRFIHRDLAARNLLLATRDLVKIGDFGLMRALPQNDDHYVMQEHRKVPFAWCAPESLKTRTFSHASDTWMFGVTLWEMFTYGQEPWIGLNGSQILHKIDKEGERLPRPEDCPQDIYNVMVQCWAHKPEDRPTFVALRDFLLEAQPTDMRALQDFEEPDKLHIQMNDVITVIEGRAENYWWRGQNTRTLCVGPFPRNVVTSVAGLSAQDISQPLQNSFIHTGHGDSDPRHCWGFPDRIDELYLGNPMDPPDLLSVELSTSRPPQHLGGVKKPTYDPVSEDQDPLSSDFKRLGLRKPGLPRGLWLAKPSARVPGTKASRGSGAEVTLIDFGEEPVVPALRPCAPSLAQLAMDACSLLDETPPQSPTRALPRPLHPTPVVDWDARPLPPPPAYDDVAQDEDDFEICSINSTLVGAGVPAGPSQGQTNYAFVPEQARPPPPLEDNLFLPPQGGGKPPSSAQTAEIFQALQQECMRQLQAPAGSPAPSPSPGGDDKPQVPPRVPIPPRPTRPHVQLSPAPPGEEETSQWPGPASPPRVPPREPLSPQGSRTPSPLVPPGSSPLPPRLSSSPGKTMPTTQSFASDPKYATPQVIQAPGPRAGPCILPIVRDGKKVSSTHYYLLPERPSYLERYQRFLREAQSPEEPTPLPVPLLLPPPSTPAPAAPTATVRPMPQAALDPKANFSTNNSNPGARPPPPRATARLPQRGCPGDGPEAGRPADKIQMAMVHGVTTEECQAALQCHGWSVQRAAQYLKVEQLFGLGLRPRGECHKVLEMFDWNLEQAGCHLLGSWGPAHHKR
Chain of Mast/stem cell growth factor receptor Kit (Homo sapiens) (P10721 whole entry): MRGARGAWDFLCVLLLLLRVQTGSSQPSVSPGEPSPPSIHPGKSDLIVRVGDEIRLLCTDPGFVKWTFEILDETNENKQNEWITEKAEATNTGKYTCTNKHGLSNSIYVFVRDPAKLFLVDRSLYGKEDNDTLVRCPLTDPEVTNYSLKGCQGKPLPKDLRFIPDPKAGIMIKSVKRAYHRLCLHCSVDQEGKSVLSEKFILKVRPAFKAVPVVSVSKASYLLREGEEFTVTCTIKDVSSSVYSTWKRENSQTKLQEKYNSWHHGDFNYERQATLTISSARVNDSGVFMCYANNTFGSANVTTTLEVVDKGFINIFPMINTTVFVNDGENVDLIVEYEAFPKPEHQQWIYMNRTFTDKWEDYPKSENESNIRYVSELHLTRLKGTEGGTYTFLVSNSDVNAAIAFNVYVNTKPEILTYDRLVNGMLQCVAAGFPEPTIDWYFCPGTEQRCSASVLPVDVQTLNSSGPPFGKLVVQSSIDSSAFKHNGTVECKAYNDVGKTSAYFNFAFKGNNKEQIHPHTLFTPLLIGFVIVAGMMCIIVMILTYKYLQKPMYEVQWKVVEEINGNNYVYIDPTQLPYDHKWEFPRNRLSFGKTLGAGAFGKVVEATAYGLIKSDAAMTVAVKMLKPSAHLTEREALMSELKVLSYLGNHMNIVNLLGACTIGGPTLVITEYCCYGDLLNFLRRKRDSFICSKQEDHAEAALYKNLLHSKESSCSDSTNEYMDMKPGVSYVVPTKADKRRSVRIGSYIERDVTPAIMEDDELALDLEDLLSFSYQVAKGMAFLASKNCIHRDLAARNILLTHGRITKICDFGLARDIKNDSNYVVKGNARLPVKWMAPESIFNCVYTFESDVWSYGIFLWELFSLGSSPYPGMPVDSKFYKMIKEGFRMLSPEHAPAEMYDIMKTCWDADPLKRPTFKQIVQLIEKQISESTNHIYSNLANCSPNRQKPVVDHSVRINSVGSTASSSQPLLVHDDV

The pIC50 is the negative decadic logarithm of the IC50, by convention in mol/L. Broadly, the IC50 is the concentration needed to halve the response being measured. Broadly, the inhibition is the share of the control response that was lost under treatment. For `CNC(=O)c1cc(Oc2ccc(NC(=O)Nc3ccc(Cl)c(C(F)(F)F)c3)cc2)ccn1` [SORAFENIB], the pIC50 in data set [1] is 5.14. Besides, the IC50 at 72 h in data set [2] came out at 2.95 µM. Also, the inhibition at 72 h, 50 µM in [3] came to 99%.
As for `O=S1(=O)N=C(NCc2ccc(OC(F)(F)F)cc2)Nc2cc(Cl)ccc21`, the selectivity ratio in data set [4] turned out to be 1.6. Also, the pIC50 in data set [1] was 4.32; in [12], 3.85. Besides, the Activity turned out to be 32% in data set [5], 8% in data set [6], 33% in data set [8] and 0.1% in [10]. Also, the IC50 at 72 h in [2] turned out to be 77.2 µM. The inhibition entry in data set [7] was “Active”. Besides, the inhibition in data set [9] was determined as 33%. Further, the growth, % of control at 20 µM in data set [11] came to 199%.

Source of the values: ChEMBL document CHEMBL5126581, “Chlorinated benzothiadiazines inhibit angiogenesis through suppression of VEGFR2 phosphorylation” (Bioorg Med Chem, 2022).
